The source made the active and inactive calls. How the calls were made is not given here.
Molecular target: Insulin-degrading enzyme (Homo sapiens) (UniProt P14735)
Assay: inhibition of recombinant IDE cleaving insulin – biochemical, TR-FRET, counter-screen for IDE inhibitor project, late-stage follow-up (AID 624065)
Settings: recombinant IDE insulin degradation

Chain of Insulin-degrading enzyme (Homo sapiens) (P14735 whole entry, looked up): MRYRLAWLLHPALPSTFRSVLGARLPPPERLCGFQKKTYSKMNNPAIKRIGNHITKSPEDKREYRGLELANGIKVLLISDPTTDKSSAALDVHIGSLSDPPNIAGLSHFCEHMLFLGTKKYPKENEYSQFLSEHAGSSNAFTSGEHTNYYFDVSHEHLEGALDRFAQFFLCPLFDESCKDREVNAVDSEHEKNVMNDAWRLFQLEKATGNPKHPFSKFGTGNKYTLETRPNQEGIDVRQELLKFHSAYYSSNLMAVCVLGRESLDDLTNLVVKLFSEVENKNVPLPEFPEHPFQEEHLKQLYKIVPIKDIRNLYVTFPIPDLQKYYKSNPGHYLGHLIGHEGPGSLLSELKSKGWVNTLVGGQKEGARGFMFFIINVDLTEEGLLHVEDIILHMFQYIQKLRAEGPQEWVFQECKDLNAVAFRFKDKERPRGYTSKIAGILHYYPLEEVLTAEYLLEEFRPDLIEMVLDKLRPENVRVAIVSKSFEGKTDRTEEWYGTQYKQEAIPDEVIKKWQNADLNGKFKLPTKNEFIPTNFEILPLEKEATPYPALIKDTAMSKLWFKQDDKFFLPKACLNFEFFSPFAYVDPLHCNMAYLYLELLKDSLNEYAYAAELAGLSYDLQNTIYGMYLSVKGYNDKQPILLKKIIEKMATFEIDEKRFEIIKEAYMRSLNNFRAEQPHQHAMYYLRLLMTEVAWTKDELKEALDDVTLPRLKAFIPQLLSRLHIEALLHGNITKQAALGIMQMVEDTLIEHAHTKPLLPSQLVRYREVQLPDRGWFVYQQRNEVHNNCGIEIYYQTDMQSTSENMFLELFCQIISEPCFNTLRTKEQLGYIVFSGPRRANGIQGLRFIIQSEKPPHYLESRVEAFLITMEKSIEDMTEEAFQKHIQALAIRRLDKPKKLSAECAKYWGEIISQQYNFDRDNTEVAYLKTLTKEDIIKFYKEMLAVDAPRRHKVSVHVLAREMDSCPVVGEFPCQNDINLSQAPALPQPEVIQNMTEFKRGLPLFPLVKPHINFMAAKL

Row | Compound | IC50
1 | O=C(Nc1ccc2oc(-c3cccnc3)nc2c1)c1ccc2c(c1)OCCO2 | > 10 µM (inactive)
2 | Nc1c(C(=O)Nc2nccs2)sc2nc(-c3cccs3)cc(C(F)(F)F)c12 | > 10 µM (inactive)
3 | O=C(Nc1cccc(C(F)(F)F)c1)c1csc(-c2ccncc2)n1 | > 10 µM (inactive)
4 | COc1cccc(-c2nnc(SCc3nc4ccccc4[nH]3)n2Cc2ccco2)c1 | > 10 µM (inactive)
5 | Cc1cccc(-c2nnc(SCc3nc4ccccc4[nH]3)n2Cc2ccco2)c1 | > 10 µM (inactive)
6 | Clc1cccc(-c2nnc(SCc3nc4ccccc4[nH]3)n2Cc2ccco2)c1 | > 10 µM (inactive)
7 | O=C(C1CC1)N1CCN(c2ccnc3cc(Cl)ccc23)CC1 | > 10 µM (inactive)
8 | Cc1c(CCC(=O)NCCCn2ccnc2)c(=O)oc2cc3oc4c(c3cc12)CCCC4 | > 10 µM (inactive)
9 | Cn1c(=O)c(C(=O)CN2CCCc3ccccc32)c(N)n(Cc2ccccc2)c1=O | > 10 µM (inactive)
10 | O=c1c2ccccc2sn1-c1cc(S(=O)(=O)N2CCOCC2)ccc1N1CCOCC1 | 4 µM

Next, values leading:

Row | IC50 | Compound
11 | 4 µM | O=C(O)c1ccccc1NS(=O)(=O)c1cccc(-n2sc3ccccc3c2=O)c1
12 | > 10 µM (inactive) | COc1cc(/C=C2\SC(=S)N(NC(C)=O)C2=O)ccc1OC(=O)c1ccco1
13 | > 10 µM (inactive) | CCOc1ccc2[nH]c3c(N4CCN(C(=O)c5ccco5)CC4)ncnc3c2c1
14 | > 10 µM (inactive) | CCN(CC)c1ccc(/C=C2\C(=N)N3N=C(CC(=O)N4CCOCC4)SC3=NC2=O)cc1
15 | > 10 µM (inactive) | Cc1ccc(C)c(N2C(=N)S/C(=C\c3ccc(-c4ccccc4C(=O)O)o3)C2=O)c1
16 | 4.1 µM | COc1ccc(C(=O)N2CCN(C(=O)C3COc4ccccc4O3)CC2)cc1OC (stereo unspecified)

Reference: PubChem BioAssay AID624065 (The Scripps Research Institute Molecular Screening Center, 2012)
